This is an account of results in PMC4579064 (Toxicology and applied pharmacology, 2015).

One series addresses CYP2C19 (Homo sapiens, UniProt P33261). Kind of series: recombinant CYP activity with fluorogenic substrate. It counts as biochemical.
A further series concerns the target CYP2E1 (Homo sapiens, UniProt P05181). The description is as above. The format is biochemical.
The next series deals with CYP3A5 (Homo sapiens, UniProt P20815). Described as above. It counts as biochemical.
The target of another series is T1, recombinant human CPR (Homo sapiens, UniProt P16435).
T1 sequence (P16435 1-677): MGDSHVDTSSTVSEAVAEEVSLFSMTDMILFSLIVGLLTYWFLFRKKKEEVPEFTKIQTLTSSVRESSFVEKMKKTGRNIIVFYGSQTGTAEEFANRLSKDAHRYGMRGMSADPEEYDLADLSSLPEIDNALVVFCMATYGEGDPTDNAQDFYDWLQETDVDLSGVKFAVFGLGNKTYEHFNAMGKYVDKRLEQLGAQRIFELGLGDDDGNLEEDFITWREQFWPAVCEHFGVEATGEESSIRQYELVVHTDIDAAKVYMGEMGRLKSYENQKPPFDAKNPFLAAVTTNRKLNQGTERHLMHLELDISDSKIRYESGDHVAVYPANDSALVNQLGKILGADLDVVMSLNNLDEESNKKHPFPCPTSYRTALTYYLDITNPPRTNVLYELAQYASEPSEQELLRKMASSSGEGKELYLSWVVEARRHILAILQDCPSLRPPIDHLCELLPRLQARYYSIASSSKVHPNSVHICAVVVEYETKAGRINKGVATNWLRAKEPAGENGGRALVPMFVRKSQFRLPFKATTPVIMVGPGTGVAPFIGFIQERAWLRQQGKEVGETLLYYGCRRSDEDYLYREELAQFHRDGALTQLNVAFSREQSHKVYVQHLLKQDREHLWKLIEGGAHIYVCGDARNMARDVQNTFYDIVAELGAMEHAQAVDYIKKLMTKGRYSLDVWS
Kind of series: CPR-mediated redox cycling, H2O2 formation. It counts as biochemical. Conditions: menadione as redox cycling substrate of CPR; Amplex Red.

A further series deals with brain ChE. Kind of series: brain ChE activity in parathion-treated rats. As to conditions: parathion 8 mg/kg oral, menadione 40 mg/kg ip 20 min after parathion, 60 min. It counts as in vivo, rat.
Series [1] is classed as in vivo, rat. As to conditions: menadione 20 min after parathion; 60 min.
Another series concerns liver Ces. Kind of series: liver carboxylesterase. It counts as in vivo, rat. As to conditions: menadione 20 min after parathion.
Another series has as its target CYP3A4 (Homo sapiens, UniProt P08684).
For the next series, the system named is female Long-Evans rats. Conditions: menadione 40 mg/kg ip 20 min after parathion 8 mg/kg oral.
The next series has as its target T2, CYP1A1 (Homo sapiens, UniProt P04798).
T2 sequence (P04798 1-512): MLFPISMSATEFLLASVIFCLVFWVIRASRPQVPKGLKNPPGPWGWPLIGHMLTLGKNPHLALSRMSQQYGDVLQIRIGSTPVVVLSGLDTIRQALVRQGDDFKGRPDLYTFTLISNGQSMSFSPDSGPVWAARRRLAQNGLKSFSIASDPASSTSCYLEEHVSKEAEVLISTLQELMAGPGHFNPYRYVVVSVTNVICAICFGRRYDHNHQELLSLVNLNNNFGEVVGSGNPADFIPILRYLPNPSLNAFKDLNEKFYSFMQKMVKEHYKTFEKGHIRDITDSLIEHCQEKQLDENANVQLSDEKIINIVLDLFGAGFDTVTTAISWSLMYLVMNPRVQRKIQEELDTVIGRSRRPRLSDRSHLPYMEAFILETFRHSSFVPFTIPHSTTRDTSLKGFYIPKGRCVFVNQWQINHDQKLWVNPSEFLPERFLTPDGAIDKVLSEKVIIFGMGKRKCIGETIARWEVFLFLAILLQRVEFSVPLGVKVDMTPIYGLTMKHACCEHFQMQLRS
T2 sequence (P16435 2-677 partner): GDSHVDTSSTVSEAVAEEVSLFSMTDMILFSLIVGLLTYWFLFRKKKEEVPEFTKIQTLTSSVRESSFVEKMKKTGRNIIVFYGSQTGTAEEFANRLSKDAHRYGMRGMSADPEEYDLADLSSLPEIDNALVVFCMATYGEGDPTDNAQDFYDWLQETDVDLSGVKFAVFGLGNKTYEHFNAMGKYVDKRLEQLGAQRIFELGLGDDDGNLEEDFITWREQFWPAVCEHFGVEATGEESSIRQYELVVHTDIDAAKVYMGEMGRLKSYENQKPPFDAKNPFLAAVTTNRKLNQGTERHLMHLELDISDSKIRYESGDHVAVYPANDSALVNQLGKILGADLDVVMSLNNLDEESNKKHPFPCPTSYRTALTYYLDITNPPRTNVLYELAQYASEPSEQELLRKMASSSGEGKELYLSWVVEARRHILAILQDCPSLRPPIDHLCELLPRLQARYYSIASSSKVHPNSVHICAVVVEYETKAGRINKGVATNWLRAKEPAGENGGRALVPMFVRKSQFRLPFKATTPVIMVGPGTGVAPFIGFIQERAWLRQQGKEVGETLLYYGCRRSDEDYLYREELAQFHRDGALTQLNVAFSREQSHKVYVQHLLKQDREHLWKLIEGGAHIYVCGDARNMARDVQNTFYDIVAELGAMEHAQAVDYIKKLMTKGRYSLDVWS
As to the kind of experiment: recombinant CYP activity with fluorogenic substrate.

In the next series the target is T3, CYP1A2 (Homo sapiens, UniProt P05177).
T3 sequence (P05177 2-516 limits assumed): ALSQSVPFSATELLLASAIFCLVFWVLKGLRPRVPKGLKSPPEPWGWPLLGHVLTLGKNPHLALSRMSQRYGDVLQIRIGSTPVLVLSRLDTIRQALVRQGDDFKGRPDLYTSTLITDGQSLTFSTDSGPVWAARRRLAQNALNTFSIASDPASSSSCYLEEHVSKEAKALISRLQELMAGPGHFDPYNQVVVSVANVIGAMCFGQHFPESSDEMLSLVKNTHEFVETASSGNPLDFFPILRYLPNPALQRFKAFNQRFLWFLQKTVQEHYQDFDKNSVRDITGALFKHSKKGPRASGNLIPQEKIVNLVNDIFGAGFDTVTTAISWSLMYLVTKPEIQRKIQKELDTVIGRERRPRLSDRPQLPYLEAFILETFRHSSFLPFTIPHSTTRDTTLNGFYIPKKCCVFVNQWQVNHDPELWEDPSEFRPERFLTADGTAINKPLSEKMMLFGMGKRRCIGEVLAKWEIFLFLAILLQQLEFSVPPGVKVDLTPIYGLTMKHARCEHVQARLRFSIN
The series is described as above.

CYP2C19, sequence (P33261 whole entry, one chain of several): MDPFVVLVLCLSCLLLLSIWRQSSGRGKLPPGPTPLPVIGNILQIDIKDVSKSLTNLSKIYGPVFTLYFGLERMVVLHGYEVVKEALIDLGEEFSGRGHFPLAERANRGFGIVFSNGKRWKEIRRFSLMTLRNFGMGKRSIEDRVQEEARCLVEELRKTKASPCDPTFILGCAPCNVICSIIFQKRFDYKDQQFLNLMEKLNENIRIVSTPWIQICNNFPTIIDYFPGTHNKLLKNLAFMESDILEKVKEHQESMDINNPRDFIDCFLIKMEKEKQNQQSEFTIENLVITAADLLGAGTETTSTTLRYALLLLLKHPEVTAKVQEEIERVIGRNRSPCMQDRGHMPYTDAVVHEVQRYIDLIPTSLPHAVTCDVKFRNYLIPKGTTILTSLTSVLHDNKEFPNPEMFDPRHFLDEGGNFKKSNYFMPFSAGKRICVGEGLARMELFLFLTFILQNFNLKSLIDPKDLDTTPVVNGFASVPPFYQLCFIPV
CYP3A5, sequence (P20815 whole entry, one chain of several): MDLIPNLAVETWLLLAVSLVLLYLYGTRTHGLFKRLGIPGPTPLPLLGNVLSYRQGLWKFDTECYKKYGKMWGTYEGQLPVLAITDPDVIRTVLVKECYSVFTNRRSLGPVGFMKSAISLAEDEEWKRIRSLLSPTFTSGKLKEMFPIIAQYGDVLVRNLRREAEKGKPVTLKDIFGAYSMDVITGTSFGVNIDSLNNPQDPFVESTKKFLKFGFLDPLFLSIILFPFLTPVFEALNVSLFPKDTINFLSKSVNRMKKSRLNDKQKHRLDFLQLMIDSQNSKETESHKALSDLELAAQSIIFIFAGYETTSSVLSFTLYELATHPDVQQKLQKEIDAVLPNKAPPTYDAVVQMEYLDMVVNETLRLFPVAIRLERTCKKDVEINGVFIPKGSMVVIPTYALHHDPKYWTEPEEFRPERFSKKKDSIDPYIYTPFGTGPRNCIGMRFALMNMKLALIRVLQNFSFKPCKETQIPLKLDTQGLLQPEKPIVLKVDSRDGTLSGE
CYP3A4, sequence (P08684 2-503 limits assumed): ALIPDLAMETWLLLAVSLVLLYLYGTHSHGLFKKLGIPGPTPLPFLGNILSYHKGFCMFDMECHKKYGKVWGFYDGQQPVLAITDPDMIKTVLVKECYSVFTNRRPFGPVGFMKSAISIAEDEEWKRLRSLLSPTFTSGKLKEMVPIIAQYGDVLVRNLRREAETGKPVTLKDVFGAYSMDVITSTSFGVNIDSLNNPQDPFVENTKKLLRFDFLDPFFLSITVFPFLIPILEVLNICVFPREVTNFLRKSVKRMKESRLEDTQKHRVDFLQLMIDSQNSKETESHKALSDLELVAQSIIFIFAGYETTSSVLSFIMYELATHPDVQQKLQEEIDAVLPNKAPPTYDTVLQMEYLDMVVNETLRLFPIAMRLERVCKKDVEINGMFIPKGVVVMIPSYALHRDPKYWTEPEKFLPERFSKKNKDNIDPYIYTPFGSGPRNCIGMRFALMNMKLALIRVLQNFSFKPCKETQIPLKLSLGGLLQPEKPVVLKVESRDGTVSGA
CYP2E1, sequence (P05181 whole entry, one chain of several): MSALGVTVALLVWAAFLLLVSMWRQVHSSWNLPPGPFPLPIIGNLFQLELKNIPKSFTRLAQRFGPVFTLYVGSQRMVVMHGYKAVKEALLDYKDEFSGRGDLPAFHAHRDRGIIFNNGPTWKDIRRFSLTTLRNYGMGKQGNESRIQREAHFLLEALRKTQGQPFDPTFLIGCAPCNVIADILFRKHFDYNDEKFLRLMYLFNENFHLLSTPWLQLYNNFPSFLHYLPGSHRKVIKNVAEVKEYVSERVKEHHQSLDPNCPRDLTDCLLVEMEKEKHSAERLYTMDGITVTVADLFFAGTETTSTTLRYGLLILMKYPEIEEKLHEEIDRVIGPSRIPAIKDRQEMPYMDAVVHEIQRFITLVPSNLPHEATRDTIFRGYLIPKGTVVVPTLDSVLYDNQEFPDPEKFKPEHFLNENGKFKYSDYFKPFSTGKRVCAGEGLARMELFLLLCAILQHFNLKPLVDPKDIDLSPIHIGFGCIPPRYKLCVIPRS

`CC1=CC(=O)c2ccccc2C1=O` [menadione, 2-methylnaphthalene-1,4-dione]: the IC50 at CYP2C19 came out at 8.51 ± 0.38 µM; on CYP2E1, 5.58 ± 1.22 µM; at CYP3A5, 9.77 ± 3.33 µM; on CYP1A1, 4.39 ± 0.42 µM; on CYP1A2 it was 4.51 ± 0.57 µM. Also, on recombinant human CPR, the “Vmax for H2O2 formation” value is 4.4 µmol/min/mg CPR protein. Also, the “forebrain ChE inhibited” value in the series on brain ChE was found to be 11%. In addition, in the series with brain ChE, the “hindbrain ChE inhibited” value came to 17%. Besides, the “liver levels of parathion” value in series [1] is on record as “without altering”. Further, the parathion in blood result in [1] is recorded as “striking increase”. Besides, the “serum and brain parathion levels” value in [1] is listed as “significant increases”. In addition, the “inhibition of liver Ces by parathion” value with liver Ces is on record as “reduced the inhibition”. Besides, the paraoxon formation entry at CYP3A4 was “marked decrease”. Besides, in the series with female Long-Evans rats, the “parathion toxicity (startle response, tremulous jaw movement, tremors and convulsions)” value is “marked reduction”.

A word on the IC50: it is the point on the concentration scale where inhibition reaches its midpoint.
